Key:
[1] = Measurement of Log P values by HPLC on reversed phase columns (EEC directive 79/831 Annex V.A8); type: physicochemical; conditions: reversed phase HPLC column, method [a]: LC-UV, acidic range, 0.1% formic acid in water and acetonitrile as eluent
Outline: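 Log P derived from retention on reversed-phase columns (EEC directive 79/831 Annex V.A8), LC-UV, acetonitrile gradient 10% to 95% against water containing 0.1% formic acid, 0.001 M ammonium acetate, or 0.1% phosphoric acid; several values per method separated by "+".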

[2] = test system: Septoria tritici; experiment: B-9. Septoria tritici in vitro cell test; type: cell-based; conditions: Zymoseptoria tritici, 168 h; 20 ppm of active ingredient; 7 days incubation; liquid culture, absorbance; read-out: efficacy (inhibition of fungal growth)
Outline: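 Compounds from DMSO stocks (final DMSO ≤1%) were added to liquid medium containing S. tritici spores to test inhibition of germination and mycelial growth. After 7 days, mycelium growth was read spectrometrically and inhibition derived from absorbance versus fungicide-free control wells.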

[3] = test system: Botrytis cinerea; experiment: In vivo preventive test on Botrytis cinerea (grey mould); conditions: 500 ppm of active ingredient, preventive spray on gherkin or cabbage, evaluated 4 to 5 days after inoculation, read-out: efficacy
Outline: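 Preventive spray on cabbage or gherkin seedlings, with compound formulated in DMSO/acetone/Tween 80 and water-diluted, preceded spore inoculation by 24 hours. Cabbage was held 4 to 5 days at 20° C., 100% relative humidity; gherkin 4 to 5 days at 17° C., 90% relative humidity.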

chromatographic logP [1]	SMILES	inhibition at 20 ppm [2] [%]	pest or weed control at 500 ppm [3] [%]
3.68	Cc1ccc(C(F)(F)CNC(=O)c2c(Oc3cccc(C(F)F)c3)nnc3c2CCCC3)c(C)c1 [I-129]	90 to 100	90 to 100
4.66	Cc1ccc2c(C(=O)NCC(F)(F)c3ccc(C)c(C)c3)c(Oc3cccc(C(F)(F)F)c3)nnc2c1 [I-246]	90 to 100	90 to 100
4.3	Cc1cccc(Oc2cnc3ccccc3c2C(=O)NCC(F)(F)c2ccc(C)cc2C)c1 [I-222]	80 to 89	90 to 100
4.05	O=C(NCC(F)(F)c1ccc(Br)cc1Cl)c1c(Oc2cccc(Cl)c2F)nnc2c1CCC2 [I-213]	90 to 100	90 to 100
3.78	Cc1ccc(C(F)CNC(=O)c2c(Oc3cccc(Cl)c3F)nnc3c2CCCC3)c(C)c1 (stereo not drawn) [I-136]	90 to 100	90 to 100
4	Cc1cc(Cl)ccc1C(F)(F)CNC(=O)c1c(Oc2cccc(Cl)c2F)nnc2c1CCC2 [I-148]	80 to 89	90 to 100
4	Cc1ccc(C(F)(F)CNC(=O)c2c(Oc3cccc(Cl)c3F)nnc3c2CCCC3)c(C)c1 [I-130]	90 to 100	90 to 100
3.89	O=C(NCC(F)c1ccc(Cl)cc1Cl)c1c(Oc2cccc(Cl)c2F)nnc2c1CCC2 (stereo not drawn) [I-188]	90 to 100	90 to 100
4.11	Cc1cc(Cl)ccc1C(F)(F)CNC(=O)c1c(Oc2cccc(Cl)c2)nnc2c1CCCC2 [I-146]	90 to 100	90 to 100
4.05	O=C(NCC(F)c1ccc(Cl)cc1Cl)c1c(Oc2cccc(C(F)(F)F)c2)nnc2c1CCCC2 (stereo not drawn) [I-118]	90 to 100	90 to 100
4.57	O=C(NC[C@H](F)c1ccc(Cl)cc1Cl)c1c(Oc2cccc(C3CC3)c2F)nnc2ccccc12 (racemic) [I-072]	90 to 100	90 to 100
4.19	Cc1ccc([C@@H](F)CNC(=O)c2c(Oc3cccc(C(F)(F)F)c3)nnc3ccccc23)cc1C (racemic) [I-084]	90 to 100	90 to 100
4.7	Cc1ccc(C(F)(F)CNC(=O)c2c(Oc3cccc(C(F)(F)F)c3)nnc3cc(C)ccc23)c(Cl)c1 [I-245]	80 to 89	90 to 100
4.17	Cc1cc(Br)ccc1C(F)(F)CNC(=O)c1c(Oc2cccc(Cl)c2)nnc2c1CCCC2 [I-151]	90 to 100	90 to 100
3.94	O=C(NCC(F)c1ccc(Cl)cc1Cl)c1c(Oc2cccc(Cl)c2F)nnc2c1CCCC2 (stereo not drawn) [I-149]	90 to 100	90 to 100
4	Cc1ccc(C(F)(F)CNC(=O)c2c(Oc3cccc(C(F)(F)F)c3)nnc3c2CCC3)c(C)c1 [I-132]	90 to 100	90 to 100
4.17	Cc1ccc(C(F)(F)CNC(=O)c2c(Oc3cccc(C4CC4)c3F)nnc3c2CCC3)c(C)c1 [I-134]	90 to 100	90 to 100
4.11	O=C(NCC(F)c1ccc(Cl)cc1Cl)c1c(Oc2cccc(C3CC3)c2)nnc2c1CCCC2 (stereo not drawn) [I-119, 3-(3-cyclopropylphenoxy)-N-[2-(2,4-dichlorophenyl)-2-fluoro-ethyl]-5,6,7,8-tetrahydrocinnoline-4-carboxamide]	90 to 100	90 to 100

chromatographic logP [1]	SMILES	inhibition at 20 ppm [2] [%]	pest or weed control at 500 ppm [3] [%]
4.08	Cc1ccc(C(F)(F)CNC(=O)c2c(Oc3cccc(C(F)F)c3)cnc3ccccc23)c(C)c1 [I-220]	90 to 100	90 to 100
3.89	Cc1ccc(C(F)(F)CNC(=O)c2c(Oc3cccc(Cl)c3F)nnc3c2CCC3)c(C)c1 [I-133]	90 to 100	90 to 100
4	O=C(NCC(F)c1ccc(Cl)cc1Cl)c1c(Oc2cccc(C(F)(F)F)c2)nnc2c1CCC2 (stereo not drawn) [I-186]	90 to 100	90 to 100
4.42	Cc1ccc(CCNC(=O)c2c(Oc3cccc(C4CC4)c3F)nnc3ccccc23)c(C)c1 [I-070]	90 to 100	90 to 100
3.94	O=C(NCC(F)(F)c1ccc(Br)cc1Cl)c1c(Oc2cccc(C(F)(F)F)c2)nnc2c1COCC2 [I-229]	90 to 100	90 to 100
3.63	Cc1ccc(C(F)(F)CNC(=O)c2c(Oc3cccc(C(F)F)c3)nnc3c2CCCC3)c(Cl)c1 [I-243]	90 to 100	90 to 100
4.17	O=C(NCC(F)(F)c1ccc(Br)cc1Cl)c1c(Oc2cccc(C(F)(F)F)c2)nnc2c1CCC2 [I-212]	90 to 100	90 to 100
3.84	Cc1cc(Br)ccc1C(F)(F)CNC(=O)c1c(Oc2cccc(C(F)F)c2)nnc2c1CCCC2 [I-150]	90 to 100	90 to 100
3.7	Cc1ccc(C(F)(F)CNC(=O)c2c(Oc3cccc(C(F)(F)F)c3)nnc3c2COCC3)c(Cl)c1 [I-124]	90 to 100	90 to 100
4	Cc1ccc(C(F)CNC(=O)c2c(Oc3cccc(C4CC4)c3F)nnc3c2CCCC3)c(C)c1 (stereo not drawn) [I-137]	70 to 79	90 to 100
3.61	Cc1ccc(C(F)CNC(=O)c2c(Oc3cccc(C(F)(F)F)c3)nnc3c2COCC3)c(C)c1 (stereo not drawn) [I-123]	90 to 100	90 to 100
4.38	Cc1ccc(C(F)(F)CNC(=O)c2c(Oc3cccc(Br)c3)nnc3ccccc23)c(C)c1 [I-216]	80 to 89	90 to 100
4.05	Cc1ccc(C(F)(F)CNC(=O)c2c(Oc3cccc(Br)c3F)nnc3c2CCCC3)c(C)c1 [I-128]	90 to 100	90 to 100
4.4	Cc1ccc(C(F)(F)CNC(=O)c2c(Oc3cccc(Br)c3F)nnc3ccccc23)c(C)c1 [I-227]	70 to 79	90 to 100
4.18	O=C(NC[C@H](F)c1ccc(Cl)cc1Cl)c1c(Oc2cccc(C(F)(F)F)c2)cnc2ccoc12 (racemic) [I-067]	70 to 79	90 to 100
4.05	Cc1ccc(C(F)(F)CNC(=O)c2c(Oc3cccc(C(F)(F)F)c3)nnc3c2CCCC3)c(Cl)c1 [I-239]	90 to 100	90 to 100
3.89	Cc1ccc(C(F)(F)CNC(=O)c2c(Oc3cccc(Cl)c3)nnc3c2CCCC3)c(C)c1 [I-121]	90 to 100	90 to 100

Source: US20230192617A1, “AZABICYCLIC(THIO)AMIDES AS FUNGICIDAL COMPOUNDS” (Bayer CropScience Aktiengesellschaft, priority 2020, published 2023)
